The structures appear in SMILES notation. pIC50: −log10 of the molar value.

In the first assay the test system is MDA-MB-231 human breast cancer cells. Briefly: Cell proliferation assay (CellTiter-Glo, 72 hours treatment). The following applies: Homo sapiens, MDA-MB-231, 72 h, read-out: MDA-MB-231 cell proliferation assay (IC50). In kind it is cell-based. The gist of the method:
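MDA-MB-231 cells seeded at 2,500 cells/well, treated next day with compound or DMSO vehicle for 72 h at 37 °C. Proliferation read by CellTiter-Glo; IC50 from sigmoidal non-linear regression, binned as +++ (<100 nM), ++ (100–1000 nM), + (>1000 nM).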
(In general: Cellular ATP, detected with luciferase, serves as a proxy for viable cell number.)
For `COc1cncc2c1[C@]1(O)[C@@H](CN)C[C@@H](c3ccccc3)[C@]1(c1ccc(Br)cc1)O2` (racemic) [172F, Rac-(4bR,5R,7S,7aR)-5-(aminomethyl)-7a-(4-bromophenyl)-4-methoxy-7-phenyl-5,6,7,7a-tetrahydro-4bH-cyclopenta[4,5]furo[2,3-c]pyridin-4b-ol], the pIC50 was > 7.00.
On the same count and under the same terms, in the case of `COc1cncc2c1[C@]1(O)[C@@H](CN3CCN(C)CC3)[C@H](CO)[C@@H](c3ccccc3)[C@]1(c1ccc(Br)cc1)O2` (racemic) [183F, Rac-(4bR,5R,6R,7S,7aR)-7a-(4-bromophenyl)-6-(hydroxymethyl)-4-methoxy-5-((4-methylpiperazin-1-yl)methyl)-7-phenyl-5,6,7,7a-tetrahydro-4bH-cyclopenta[4,5]furo[2,3-c]pyridin-4b-ol] it was > 7.00.

Staying with this assay, now noted: Homo sapiens; MDA-MB-231 cells, 72 hours at 37° C., CellTiter-Glo; read-out: MDA-MB-231 cell proliferation assay (IC50).
As for `O=C1O[C@@H]2[C@H]1[C@@H](c1ccccc1)[C@]1(c3ccc(Br)cc3)Oc3cc(Cl)cnc3[C@]21O` (racemic) [169F, Rac-(2aR,3S,3aR,8bS,8cR)-3a-(4-bromophenyl)-6-chloro-8b-hydroxy-3-phenyl-3,3a,8b,8c-tetrahydrooxeto[3″,2″:4′,5′]cyclopenta[1′,2′:4,5]furo[3,2-b]pyridin-2(2aH)-one], the pIC50 is < 6.00.
As to `COc1cncc2c1[C@]1(O)[C@@H](CN)[C@H](CO)[C@@H](c3ccccc3)[C@]1(c1ccc(Br)cc1)O2` (racemic) [170F, Rac-(4bR,5R,6R,7S,7aR)-5-(aminomethyl)-7a-(4-bromophenyl)-6-(hydroxymethyl)-4-methoxy-7-phenyl-5,6,7,7a-tetrahydro-4bH-cyclopenta[4,5]furo[2,3-c]pyridin-4b-ol], the pIC50 is > 7.00.
As to `COc1cncc2c1[C@]1(O)[C@@H](CN)[C@H](CO)[C@@H](c3ccccc3)[C@]1(c1ccc(C#N)cc1)O2` (racemic) [171F, Rac-4-((4bR,5R,6R,7S,7aR)-5-(aminomethyl)-4b-hydroxy-6-(hydroxymethyl)-4-methoxy-7-phenyl-4b,5,6,7-tetrahydro-7aH-cyclopenta[4,5]furo[2,3-c]pyridin-7a-yl)benzonitrile], the pIC50 is 6.00 to 7.00.
The same measure, in the same setting: as for `COc1cncc2c1[C@]1(O)[C@@H](CN)C[C@@H](c3ccccc3)[C@]1(c1ccc(C#N)cc1)O2` (racemic) [173F, Rac-4-((4bR,5R,7S,7aR)-5-(aminomethyl)-4b-hydroxy-4-methoxy-7-phenyl-4b,5,6,7-tetrahydro-7aH-cyclopenta[4,5]furo[2,3-c]pyridin-7a-yl)benzonitrile], the figure is > 7.00; as for `NC[C@H]1C[C@@H](c2ccccc2)[C@]2(c3ccc(Br)cc3)Oc3cc(Cl)cnc3[C@]12O` (racemic) [174F, Rac-(5aR,6S,8R,8aR)-8-(aminomethyl)-5a-(4-bromophenyl)-3-chloro-6-phenyl-5a,6,7,8-tetrahydro-8aH-cyclopenta[4,5]furo[3,2-b]pyridin-8a-ol], > 7.00; as for `N#Cc1ccc([C@@]23Oc4cc(Cl)cnc4[C@]2(O)[C@@H](CN)C[C@H]3c2ccccc2)cc1` (racemic) [175F, Rac-4-((5aR,6S,8R,8aR)-8-(aminomethyl)-3-chloro-8a-hydroxy-6-phenyl-6,7,8,8a-tetrahydro-5aH-cyclopenta[4,5]furo[3,2-b]pyridin-5a-yl)benzonitrile], > 7.00.
The same measure, in the same setting: as for `N#Cc1ccc([C@@]23Oc4cc(C#N)cnc4[C@]2(O)[C@@H](CN)C[C@H]3c2ccccc2)cc1` (racemic) [176F, rac-(5aR,6S,8R,8aR)-8-(aminomethyl)-5a-(4-cyanophenyl)-8a-hydroxy-6-phenyl-5a,7,8,8a-tetrahydro-6H-cyclopenta[4,5]furo[3,2-b]pyridine-3-carbonitrile], the figure is 6.00 to 7.00.
The same measure, in the same setting: in the case of `O[C@]12c3ncc(Cl)cc3O[C@@]1(c1ccc(Br)cc1)[C@H](c1ccccc1)C[C@@H]2CN1CCOCC1` (racemic) [177F, rac-(5aR,6S,8R,8aR)-5a-(4-bromophenyl)-3-chloro-8-(morpholinomethyl)-6-phenyl-5a,6,7,8-tetrahydro-8aH-cyclopenta[4,5]furo[3,2-b]pyridin-8a-ol] it was 6.00 to 7.00.
For `N#Cc1ccc([C@@]23Oc4cc(Cl)cnc4[C@]2(O)[C@@H](CN2CCOCC2)C[C@H]3c2ccccc2)cc1` (racemic) [178F, Rac-4-((5aR,6S,8R,8aR)-3-chloro-8a-hydroxy-8-(morpholinomethyl)-6-phenyl-6,7,8,8a-tetrahydro-5aH-cyclopenta[4,5]furo[3,2-b]pyridin-5a-yl)benzonitrile], the pIC50 is > 7.00.
The same measure, in the same setting: in the case of `COc1cncc2c1[C@]1(O)[C@@H](CN3CCOCC3)[C@H](CO)[C@@H](c3ccccc3)[C@]1(c1ccc(Br)cc1)O2` (racemic) [179F, Rac-(4bR,5R,6R,7S,7aR)-7a-(4-bromophenyl)-6-(hydroxymethyl)-4-methoxy-5-(morpho-linomethyl)-7-phenyl-5,6,7,7a-tetrahydro-4bH-cyclopenta[4,5]furo[2,3-c]pyridin-4b-ol] it was > 7.00.
On the same count and under the same terms, as for `COc1cncc2c1[C@]1(O)[C@@H](CN3CCOCC3)[C@H](CO)[C@@H](c3ccccc3)[C@]1(c1ccc(C#N)cc1)O2` (racemic) [180F, Rac-4-((4bR,5R,6R,7S,7aR)-4b-hydroxy-6-(hydroxymethyl)-4-methoxy-5-(morpholino-methyl)-7-phenyl-4b,5,6,7-tetrahydro-7aH-cyclopenta[4,5]furo[2,3-c]pyridin-7a-yl)benzonitrile], the figure is > 7.00; as for `COc1cncc2c1[C@]1(O)[C@@H](CNCC(F)F)[C@H](CO)[C@@H](c3ccccc3)[C@]1(c1ccc(Br)cc1)O2` (racemic) [181F, Rac-(4bR,5R,6R,7S,7aR)-7a-(4-bromophenyl)-5-(((2,2-difluoroethyl)amino)methyl)-6-(hydroxymethyl)-4-methoxy-7-phenyl-5,6,7,7a-tetrahydro-4bH-cyclopenta[4,5]furo[2,3-c]pyridin-4b-ol], > 7.00.
Same read-out and setting: in the case of `COc1cncc2c1[C@]1(O)[C@@H](CNCC(F)F)[C@H](CO)[C@@H](c3ccccc3)[C@]1(c1ccc(C#N)cc1)O2` (racemic) [182F, Rac-4-((4bR,5R,6R,7S,7aR)-5-(((2,2-difluoroethyl)amino)methyl)-4b-hydroxy-6-(hydroxyl-methyl)-4-methoxy-7-phenyl-4b,5,6,7-tetrahydro-7aH-cyclopenta[4,5]furo[2,3-c]pyridin-7a-yl)benzonitrile] it was > 7.00.
Turning to `COc1cncc2c1[C@]1(O)[C@@H](CN3CCN(C)CC3)[C@H](CO)[C@@H](c3ccccc3)[C@]1(c1ccc(C#N)cc1)O2` (racemic) [184F, Rac-4-((4bR,5R,6R,7S,7aR)-4b-hydroxy-6-(hydroxymethyl)-4-methoxy-5-((4-methyl-piperazin-1-yl)methyl)-7-phenyl-4b,5,6,7-tetrahydro-7aH-cyclopenta[4,5]furo[2,3-c]pyridin-7a-yl)benzonitrile], the pIC50 is > 7.00.
Regarding `COc1cncc2c1[C@]1(O)[C@@H](CNC3COC3)[C@H](CO)[C@@H](c3ccccc3)[C@]1(c1ccc(Br)cc1)O2` (racemic) [185F, Rac-(4bR,5R,6R,7S,7aR)-7a-(4-bromophenyl)-6-(hydroxymethyl)-4-methoxy-5-((oxetan-3-ylamino)methyl)-7-phenyl-5,6,7,7a-tetrahydro-4bH-cyclopenta[4,5]furo[2,3-c]pyridin-4b-ol], the pIC50 is > 7.00.
In the case of `COc1cncc2c1[C@]1(O)[C@@H](CNC3COC3)[C@H](CO)[C@@H](c3ccccc3)[C@]1(c1ccc(C#N)cc1)O2` (racemic) [186F, Rac-4-((4bR,5R,6R,7S,7aR)-4b-hydroxy-6-(hydroxymethyl)-4-methoxy-5-((oxetan-3-ylamino)-methyl)-7-phenyl-4b,5,6,7-tetrahydro-7aH-cyclopenta[4,5]furo[2,3-c]pyridin-7a-yl)-benzonitrile], the pIC50 was > 7.00.
Still for that read-out and setting: as for `COc1cncc2c1[C@]1(O)[C@@H](CNCc3ccncc3)[C@H](CO)[C@@H](c3ccccc3)[C@]1(c1ccc(Br)cc1)O2` (racemic) [187F, Rac-(4bR,5R,6R,7S,7aR)-7a-(4-bromophenyl)-6-(hydroxymethyl)-4-methoxy-7-phenyl-5-(((pyridin-4-ylmethyl)amino)methyl)-5,6,7,7a-tetrahydro-4bH-cyclopenta[4,5]furo[2,3-c]pyridin-4b-ol], the figure is > 7.00; as for `COc1cncc2c1[C@]1(O)[C@@H](CNCc3ccncc3)[C@H](CO)[C@@H](c3ccccc3)[C@]1(c1ccc(C#N)cc1)O2` (racemic) [188F, Rac-4-((4bR,5R,6R,7S,7aR)-4b-hydroxy-6-(hydroxymethyl)-4-methoxy-7-phenyl-5-(((pyridin-4-ylmethyl)amino)methyl)-4b,5,6,7-tetrahydro-7aH-cyclopenta[4,5]furo[2,3-c]pyridin-7a-yl)benzonitrile], > 7.00.
The same measure, in the same setting: in the case of `N#Cc1ccc([C@@]23Oc4cc(Cl)cnc4[C@]2(O)[C@H](O)[C@H](Sc2ccccn2)[C@H]3c2ccccc2)cc1` (racemic) [189F, Rac-4-((5aR,6S,7R,8S,8aS)-3-chloro-8,8a-dihydroxy-6-phenyl-7-(pyridin-2-ylthio)-6,7,8,8a-tetrahydro-5aH-cyclopenta[4,5]furo[3,2-b]pyridin-5a-yl)benzonitrile] it was 6.00 to 7.00.
In the case of `C#CC1(O)C(C(=O)N(C)C)[C@@H](c2ccccc2)[C@]2(c3ccc(Br)cc3)Oc3cc(Cl)cnc3[C@]12O` (mixture of isomers) [190F, rac-(5aR,6S,8aS)-5a-(4-bromophenyl)-3-chloro-8-ethynyl-8,8a-dihydroxy-N,N-dimethyl-6-phenyl-5a,7,8,8a-tetrahydro-6H-cyclopenta[4,5]furo[3,2-b]pyridine-7-carboxamide], the pIC50 is 6.00 to 7.00.
Consider `CC#CC1(O)C(C(=O)N(C)C)[C@@H](c2ccccc2)[C@]2(c3ccc(Br)cc3)Oc3cc(Cl)cnc3[C@]12O` (mixture of isomers) [191F, Rac-(5aR,6S,8aS)-5a-(4-bromophenyl)-3-chloro-8,8a-dihydroxy-N,N-dimethyl-6-phenyl-8-(prop-1-yn-1-yl)-5a,7,8,8a-tetrahydro-6H-cyclopenta[4,5]furo[3,2-b]pyridine-7-carboxamide], for which the pIC50 is 6.00 to 7.00.

Source of the values: patent publication US10577378B2, “EIF4A-inhibiting compounds and methods related thereto” (eFFECTOR Therapeutics, Inc., priority 2015, dated 2020).
